# Measured values taken from patent US5030715A, “Novel aminopimelic acids” (Roussel Uclaf, priority 1987, dated 1991).
# Tests used:
# [1] = test system: human monocytes; assay: Stimulation of monocyte cells: Interleukine-1 (IL-1) test on culture supernatants; type: cell-based; conditions: for direct effect on human monocytes, production of an IL-1 activity in the culture supernatants: with 5 g of product
# Description: (§1) The mononucleus cells of the circulating blood of normal donors were separated according to the standard technique described by Boyum using a Ficoll gradient. After washing, the mononuclear cells were incubated at 37° C. for one hour at the rate of 5.10^6 monocytes (NSE^+ cells) per ml of culture medium using 5 ml per culture flask. The culture medium used in this experiment was made up of RPMI 1640 with the addition of antibiotics and Hepes buffer. After one hour, the non-adherent cells were removed by washing the flasks with medium previously heated to 37° C. and the adherent cells composed mostly of monocytes (>90%) were put back in culture in complete RPMI medium without serum in the presence of various quantities of products under test, which had previously been put in solution in a buffer (Dulbecco) without Ca^2+ or Mg^2+. The culture was continued for 24 or 48 hours and the supernatants of the cells were then removed, centrifuged, separated into equal lots and held either at -80° C. or at -20° C. The supernatants of the culture were replaced in the flasks by the same amount of apyrogenous distilled water to dissolve the cells. The lysate was recovered, separated into equal lots and also kept at -20° C.
# This test was described for the first time by Gery et al in 1972 [Gery et al 1972. Potentiation of the T lymphocyte response to mitogens. II. The cellular source of potentiating mediator (s) J. Exp. Med., 136-143]. It is based on the co-mitogen action of IL-1 in the presence of an antigen (mimicked by phytohemaglutinine in the test) on the thymocytes of mice. 1.5×10^6 thymocytes of mice C3H/HeJ (from the C.S.E.A.L. of Orleans) were put in culture for three days in the presence of various dilutions of supernatants and of cell lysates which may contain IL-1 activity and of PHA-P Wellcome (1 ug/ml) in culture plates with 96 flat bottomed wells, in a final volume of 200 ul of medium composed of RPMI 1640 containing in addition to antibiotics (penicillin 1 U/ml - streptomycin 1000 U/ml) of Hepes buffer, 1 mM of glutamine, 2 mM 5% of calf serum and […] of 2-mercapto ethanol. After 68 hours of culture, 1 μCi of tritiated thymidine was added to each well (^3 H-methyl thymidine, CEA Saclay, TMM79A specific activity 1 Ci/mM=37 GBq/mM) and the radioactivity incorporated by the cells was evaluated after the cultures had been filtered on Skatron type semi-automatic collecting apparatus and the filters had been counted in a liquid scintillation counter (Beckman). The results were expressed by the difference between the impulses per minute incorporated by the cultures in the presence of supernatants and the impulses per minute incorporated by the control cultures.
# [2] = test system: human monocytes; assay: Stimulation of monocyte cells: Tumor Necrosis Factor (TNF) test on culture supernatants; type: cell-based; conditions: for direct effect on human monocytes, production of a TNF activity in the culture supernatants: with 5 g of product
# Description: as §1
# The TNF activity is shown by the toxicity of this factor on the L-929 target cells (sub-clone alpha) and the technique was sensitized by adding D actinomycin in the test. The L cells were distributed at a rate of 2×10^4 cells per well of a flat-bottomed microplate in 100 μl of RPMI 1640 medium enriched with 5% of calf serum, glutamine, Hepes buffer and antibiotics. After 24 hours, various dilutions of the supernatants under test were added in a volume of 100 μl, as well as a dose of D actinomycin of 1 μg/ml. After 24 hours of culture, the quantity of undissolved cells was evaluated by coloring the plates with crystal violet and measuring the optical density of the different wells on a multiscan reader. RESULTS: The product of Example 9 stimulated the monocytes and their production of IL-1 and TNF. Furthermore, there was synergy between the products and the gamma Interferon.
# [3] = test system: Enterobacter cloacae 1321E; assay: Antibacterial activity in vitro, agar diffusion in Davis Mingioli medium; type: cell-based; conditions: product at 25 mg/l, 24 hours at 37° C., read-out: inhibition zones observed (diameter in mm)
# Description: (§2) The antibacterial activity of the products was determined by the method of diffusion in a Davis Mingioli medium with 1% of agar added to it. The agars used were poured into Petri dishes at 48° C., after inoculating with […] with the bacterial strain under test. The inocula came from a culture made 24 hours earlier in a Davis Mingioli broth. After the agars had hardened, the aqueous solutions of the products being studied were introduced into wells (9 mm) hollowed in the medium with a punch. The inhibition zones observed (diameter in mm) were measured after incubation for 24 hours at 37° C.
# [4] = test system: Salmonella typhimurium MZ11; assay: as above; type: cell-based; conditions: Salmonella enterica, product at 25 mg/l, 24 hours at 37° C., read-out: inhibition zones observed (diameter in mm)
# Description: as §2
# [5] = test system: Strain IP 52 145; assay: Antibacterial activity in vivo, protection of infected mice; design: species or system Swiss female mice; conditions: 5 mg/kg intramuscular 24 hours before intravenous infection with strain IP 52 145
# Description: Swiss female mice weighing from 18 to 20 g (Charles River Cobs noninbred CDl) were used for this experiment with each group comprising 20 animals. The various products were put in solution in apyrogenous physiological serum to obtain concentrations of 1-10-100 mcg/mouse or: 50-500-5000 mcg/kg.
# The lyophilized strain was re-hydrated with a few drops of soja trypcase broth (BioMerieux) and a tube of 10 ml of soja trypcase broth was inoculated with the suspension obtained and cultivated for 18 hours in an incubator at 37° C. Tubes of preserving agar (Pasteur) were inoculated with this culture by central stabing. After 18 hours of culture in an incubator at 37° C., the tubes were kept at 22° C.
# A tube of soja trypcase broth was inoculated from a preserving agar and cultivated for 18 hours in an incubator at 37° C. Inclined soja trypcase agars were inoculated from this culture. […] The germ concentration was evaluated by counting with a Coulter Counter. […] The quantity of revivable germs injected was checked by spreading on Petri dishes containing trypcase agar.
# Administration was done with an intramuscular injection in a volume of 0.05 ml/mouse 24 hours before infection. […] Where a clear increase in survival could not be detected after 21 days of observation, an average survival time (AST) was calculated for each group. […]
# [6] = test system: Escherichia Coli 078; assay: Antibacterial activity in vitro, agar diffusion in Davis Mingioli medium; type: cell-based; conditions: COLI078, product at 25 mg/l, 24 hours at 37° C., read-out: inhibition zones observed (diameter in mm)
# Description: as §2
# [7] = test system: Providencia sp. DU48; assay: as above; type: cell-based; conditions: product at 25 mg/l, 24 hours at 37° C., read-out: inhibition zones observed (diameter in mm)
# Description: as §2
# [8] = human blood monocytes, culture 24 or 48 hours
# [9] = in the presence of gamma Interferon (10^3 U/ml; CHU--IFN--g)
compound,measurement,setting,value
"NC(CC=CCC(=O)O)C(=O)O (centres unmarked) [Example 5, 6-amino-3-heptenedioic acid]","direct effect on human monocytes, production of an IL-1 activity in the culture supernatants",[1],showed a direct effect
same,"direct effect on human monocytes, production of a TNF activity in the culture supernatants",[2],showed a direct effect
"C[C@H](N)C(=O)NC(CC=CCC(=O)O)C(=O)O (stereo partly drawn) [Example 6, 6-(L-alanylamino)-3-heptenedioic acid]",zone of inhibition at 25 µg/mL,[3],10 mm
same,zone of inhibition at 25 µg/mL,[4],24 mm
CCCCCCCCCCCCCCCCCC(=O)N[C@@H](C)C(=O)N[C@H](CCC(=O)NC(CC=CCC(=O)[O-])C(=O)[O-])C(=O)O.[Na+].[Na+] (some centres unmarked) [Example 8],"protection, expressed in AST (average survival time) or in survival at the end of 21 days of observation",[5],particularly significant protection
"NCCCC[C@H](N)C(=O)NC(CC=CCC(=O)O)C(=O)O (stereo partly drawn) [Example 9, 6-(L-lysylamino)-3-heptenedioic acid]",stimulation of the monocytes and their production of IL-1,[1]; [8],stimulated
same,production of monokines (IL-1) in the presence of gamma Interferon,[1]; [9],at least increased the production
same,"direct effect on human monocytes, production of an IL-1 activity in the culture supernatants",[1],showed a direct effect
same,stimulation of the monocytes and their production of TNF,[2]; [8],stimulated
same,production of monokines (TNF) in the presence of gamma Interferon,[2]; [9],at least increased the production
same,"direct effect on human monocytes, production of a TNF activity in the culture supernatants",[2],showed a direct effect
"C[C@H](N)C(=O)NC(C=CCCC(=O)O)C(=O)O (stereo partly drawn) [Example 13, 2-(L-alanylamino)-3-heptenedioic acid]",zone of inhibition at 25 µg/mL,[6],17.5 mm
same,zone of inhibition at 25 µg/mL,[7],22 mm
same,zone of inhibition at 25 µg/mL,[4],20 mm
